As a reminder, the EC50 is the concentration needed to bring the measured effect to its halfway point.

Test [1] has as its target recombinant human S1P1 receptor (Homo sapiens, UniProt P21453). Kind of test: GTPγS assay to determine EC50 values. It counts as biochemical. Conditions: 35S-GTPγS binding, membrane preparations of CHO cells expressing recombinant human S1P1 receptor. On the procedure: The pH is 7.4. Test compounds are dissolved and diluted in 100% DMSO and pre-incubated at room temperature for 30 min in 150 μl of the above assay buffer, in the absence of ^35S-GTPγS. After addition of 50 μl of ^35S-GTPγS, the assay is incubated for 1 h at room temperature. […] Membrane-bound ^35S-GTPγS is measured with a TopCount from Packard Biosciences.
Specific binding is determined by subtracting non-specific binding from maximal binding. Maximal binding is the amount of cpm bound to the Multiscreen plate in the presence of 10 μM of S1P. Non-specific binding is the amount of binding in the absence of an agonist in the assay.

For a further test, the system named is circulating lymphocytes. Kind of test: Assessment of in vivo efficacy: circulating lymphocytes after oral administration. Conditions: 6 h after oral administration of 10 mg/kg, normotensive male Wistar rats, compared to vehicle-treated group. More on the design: species or system rat.

recombinant human S1P1 receptor, sequence (P21453 whole entry): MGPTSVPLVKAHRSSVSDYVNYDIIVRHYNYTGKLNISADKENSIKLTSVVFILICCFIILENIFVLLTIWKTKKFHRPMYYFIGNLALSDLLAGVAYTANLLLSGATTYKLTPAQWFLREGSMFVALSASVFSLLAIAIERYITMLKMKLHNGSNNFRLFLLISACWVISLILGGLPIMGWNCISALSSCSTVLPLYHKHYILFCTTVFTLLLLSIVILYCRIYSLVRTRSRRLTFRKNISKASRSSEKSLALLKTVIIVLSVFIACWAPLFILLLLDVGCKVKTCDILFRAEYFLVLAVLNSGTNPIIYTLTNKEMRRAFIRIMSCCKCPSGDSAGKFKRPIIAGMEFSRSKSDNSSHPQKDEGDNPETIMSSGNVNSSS
Procedure for circulating lymphocytes: The efficacy of the compounds of Formula (I) is assessed by measuring the circulating lymphocytes after oral administration of 3 to 30 mg/kg of a compound of Formula (I) to normotensive male Wistar rats. The animals are housed in climate-controlled conditions with a 12 h-light/dark cycle, and have free access to normal rat chow and drinking water. Blood is collected before and 3, 6 and 24 h after drug administration. Full blood is subjected to hematology using Advia Hematology system (Bayer Diagnostics, Zurich, Switzerland).
All data are presented as mean ±SEM. Statistical analyses are performed by analysis of variance (ANOVA) using Statistica (StatSoft) and the Student-Newman-Keuls procedure for multiple comparisons. The null hypothesis is rejected when p<0.05.

Take `Cc1sc(-c2nc(-c3ccc(OC[C@H](O)CO)cc3)no2)c2c1[C@H]1[C@@H](C2)C1(C)C` [Example 6, (2R)-3-{4-[5-((1aS,5aR)-1,1,2-trimethyl-1,1a,5,5a-tetrahydro-3-thia-cyclopropa[a]pentalen-4-yl)-[1,2,4]oxadiazol-3-yl]-phenoxy}-propane-1,2-diol]: the EC50 in test [1] came to 12 nM.

Regarding `Cc1cc(-c2noc(-c3sc(C)c4c3C[C@@H]3[C@H]4C3(C)C)n2)cc(C)c1OCC(CO)CO` [Example 19, 2-{2,6-dimethyl-4-[5-((1aS,5aR)-1,1,2-trimethyl-1,1a,5,5a-tetrahydro-3-thia-cyclopropa[a]pentalen-4-yl)-[1,2,4]oxadiazol-3-yl]-phenoxymethyl}-propane-1,3-diol], in test [1], the EC50 came to 1.2 nM. Besides, the Lymphocyte counts in the test on circulating lymphocytes was −56%.

Regarding `Cc1cc(-c2noc(-c3sc(C)c4c3C[C@@H]3[C@H]4C3(C)C)n2)cc(C)c1OCCCN` [Example 24, 3-{2,6-dimethyl-4-[5-((1aS,5aR)-1,1,2-trimethyl-1,1a,5,5a-tetrahydro-3-thia-cyclopropa[a]pentalen-4-yl)-[1,2,4]oxadiazol-3-yl]-phenoxy}-propylamine], in test [1], the EC50 came to 4.8 nM.

On to `Cc1cc(-c2noc(-c3sc(C)c4c3C[C@@H]3[C@H]4C3(C)C)n2)cc(C)c1OCCCNCCO` [Example 27, 2-(3-{2,6-dimethyl-4-[5-((1aS,5aR)-1,1,2-trimethyl-1,1a,5,5a-tetrahydro-3-thia-cyclopropa[a]pentalen-4-yl)-[1,2,4]oxadiazol-3-yl]-phenoxy}-propylamino)-ethanol], for which the EC50 in test [1] was found to be 6.1 nM.

With `Cc1cc(-c2noc(-c3sc(C)c4c3C[C@@H]3[C@H]4C3(C)C)n2)cc(C)c1OCCCN1CCCC1C(=O)O` (stereo partly drawn) [Example 32, 1-(3-{2,6-dimethyl-4-[5-((1aS,5aR)-1,1,2-trimethyl-1,1a,5,5a-tetrahydro-3-thia-cyclopropa[a]pentalen-4-yl)-[1,2,4]oxadiazol-3-yl]-phenoxy}-propyl)-pyrrolidine-2-carboxylic acid], the EC50 in test [1] was determined as 8.8 nM.

Consider `Cc1cc(-c2nc(-c3sc(C)c4c3C[C@@H]3[C@H]4C3(C)C)no2)cc(C)c1O` [Example 38, 2,6-dimethyl-4-[3-((1aS,5aR)-1,1,2-trimethyl-1,1a,5,5a-tetrahydro-3-thia-cyclopropa[a]pentalen-4-yl)-[1,2,4]oxadiazol-5-yl]-phenol], for which the EC50 in test [1] was found to be 1.6 nM.

`Cc1cc(-c2nc(-c3sc(C)c4c3C[C@@H]3[C@H]4C3(C)C)no2)cc(C)c1OCCO` [Example 39, 2-{2,6-dimethyl-4-[3-((1aS,5aR)-1,1,2-trimethyl-1,1a,5,5a-tetrahydro-3-thia-cyclopropa[a]pentalen-4-yl)-[1,2,4]oxadiazol-5-yl]-phenoxy}-ethanol]: the EC50 in test [1] was determined as 1.1 nM.

As to `Cc1cc(-c2nc(-c3sc(C)c4c3C[C@@H]3[C@H]4C3(C)C)no2)cc(C)c1OCC(CO)CO` [Example 43, 2-{2,6-dimethyl-4-[3-((1aS,5aR)-1,1,2-trimethyl-1,1a,5,5a-tetrahydro-3-thia-cyclopropa[a]pentalen-4-yl)-[1,2,4]oxadiazol-5-yl]-phenoxymethyl}-propane-1,3-diol], the half-maximal effective concentration (EC50) in test [1] was 1.4 nM.

(Values after patent publication US7605269B2, “Thiophene derivatives as Sphingosine-1-phosphate-1 receptor agonists” (Actelion Pharmaceuticals Ltd., priority 2005, dated 2009).)
